From publication PMC8537445, “D-Peptide-Based Probe for CXCR4-Targeted Molecular Imaging and Radionuclide Therapy” (Pharmaceutics, 2021)
Read-outs that look alike come from different tables or passages of the source. Positions of bridges follow the written chain, without caps; N, C: chain ends. Non-standard residues stand in square brackets, D forms with d. Residues, ends and D or L forms follow the SMILES beside them. Groups on a side chain read outwards from the residue. Chains are numbered I, II in the order given. *: point of attachment. DOTA = O=C(O)CN1CCN(CC(=O)O)CCN(CC(=O)*)CCN(CC(=O)O)CC1; 2Nal = N[C@@H](Cc1ccc2ccccc2c1)C(=O)O; dNMeOrn = CN[C@H](CCCN)C(=O)O; 4Amb = NCc1ccc(C(=O)O)cc1

Tests used:
[1] = Ex vivo biodistribution in wild-type mice; details: mouse, total radioactivity, 75 min p.i., ex vivo gamma counting, mean ± SD
Method: The in vivo pharmacokinetics of the selected radioligands were first evaluated in wild-type mice by performing a whole-body biodistribution study. […] Blood and major organs were collected in tared tubes and weighed. Quantification of radioactivity in blood, organs, and other body parts was performed using an automated gamma counter equipped with a 3-inch NaI(Tl) well crystal coupled to a multichannel analyzer, mounted in a sample changer (2480 Wizard^2, Perkin Elmer, Waltham, MA, USA). Counts were corrected for background radiation, physical decay and counter dead time. Results are presented as standardized uptake values (SUV; tissue activity concentration (MBq/g)/[injected dose (MBq)/body weight (g)]).

[2] = target: T1, hCXCR4-expressing U87 cells (U87.hCXCR4) (Homo sapiens, UniProt P61073); assay: Binding and internalization assay on U87.hCXCR4 cells; format: cell-based; details: AMD3100 100 µM
T1 construct: expressed in transfected cells; host or cells: U87 human glioblastoma cells, stably transfected
T1 sequence (P61073 whole entry): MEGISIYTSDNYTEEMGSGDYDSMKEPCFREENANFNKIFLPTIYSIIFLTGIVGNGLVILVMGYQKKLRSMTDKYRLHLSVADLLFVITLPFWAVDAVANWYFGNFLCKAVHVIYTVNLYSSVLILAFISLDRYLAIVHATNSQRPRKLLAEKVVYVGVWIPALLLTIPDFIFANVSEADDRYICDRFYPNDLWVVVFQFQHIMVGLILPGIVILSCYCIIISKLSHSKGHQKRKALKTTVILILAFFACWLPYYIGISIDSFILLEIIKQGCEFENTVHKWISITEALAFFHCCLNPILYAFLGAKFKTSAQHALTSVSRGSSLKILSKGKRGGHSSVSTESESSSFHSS
Method: Cellular uptake and internalization of [^18F]AlF-NOTA-DV1-k-(DV3), [^68Ga]Ga-DOTA-DV1-k-(DV3) and [^177Lu]Lu-DOTA-DV1-k-(DV3) (11, 17 and 7 nM respectively) into U87.hCXCR4 cells (2.5 × 10^5 cells) were investigated and compared with [^68Ga]PentixaFor (6 nM) as control. […] After incubation, the supernatant was removed and combined with 3 mL of ice-cold PBS used for rinsing the cells (unbound fraction). Subsequently, cells were incubated twice with 50 mM Glycine-HCl pH 2.8 for 5 min at room temperature, followed by one washing step with ice-cold PBS (membrane-bound fraction). Then, cells were lysed using 350 µL of reagent A100 (Chemometec, Allerod, Denmark). Reagent B (Chemometec, Allerod, Denmark) was used for rinsing the wells and to quench the lysing of the cells. Quantification of the amount of bound and internalized activity was performed using an automated gamma counter. The number of cells per well was counted using an automated counting device (NucleoCounter® NC-100™, Chemometec, Allerod, Denmark). Results were expressed as percentage of applied radioactivity bound to 2.5 × 10^5 cells.

[3] = in vivo; details: female, SCID (CB17.Cg-Prkdc<scid>Lyst<bg-J>/Crl), mouse, tumor, iv, total radioactivity
Method: The subcutaneous tumor xenograft model was prepared using a published procedure [21]. Briefly, 1 × 10^6 U87.hCXCR4 cells mixed with Cultrex (1:1; Cultrex Basement Membrane Extract, R&D systems, Minneapolis, MN, USA) were implanted subcutaneously into the right shoulder of female 10-week-old SCID mice (CB17.Cg-PrkdcLyst<bg-J>/Crl; Charles River Laboratories, Sulzfeld, Germany). After an average of four weeks, the animals were used in biodistribution and PET/computed tomography (CT) imaging studies. Tumor volumes ranged from 150–574 mm^3 (measured by caliper, h × l × w), while the tumor mass-to-body weight ratio was 0.14–2.34%.
Dynamic PET images were acquired for 60 min immediately after intravenous injection using a beta-cube PET scanner (Molecubes, Gent, Belgium). The mice were kept under gas anesthesia during the entire procedure (2.5% isoflurane in O2 at 1 L/min flow rate), with temperature and respiration monitored throughout. […]
PET data were histogrammed into 14 frames (4 × 15 s, 4 × 1 min, 1 × 5 min, 5 × 10 min) and reconstructed into a 192 × 192 image matrix with 0.4 mm voxels using 30 iterations the native MLEM algorithm with corrections for randoms, scatter, attenuation and decay. […] Radiotracer uptake at 60 min, expressed as SUVmean, was the outcome measure.

[4] = Stability of the peptide in standard labeling conditions (LC-HRMS); format: physicochemical; details: aqueous buffer pH 4, 1 h at 95 °C
Method: First, we successfully confirmed previously reported IC50-values of DV1, DV3 and DV1-k-(DV3) for hCXCR4 in an in vitro binding assay (Table 1) and we assessed the stability of the bivalent peptide DV1-k-(DV3) in standard labeling conditions (aqueous buffer pH 4, 1 h at 95 °C).

[5] = target: T2, murine CXCR4 (mCXCR4) (Mus musculus, UniProt P70658); assay: Competition binding with fluorescent murine CXCL12^AF647 on U87.mCXCR4 cells (flow cytometry)
T2 construct: expressed in transfected cells; host or cells: U87 human glioblastoma cells, stably transfected
T2 sequence (P70658 whole entry): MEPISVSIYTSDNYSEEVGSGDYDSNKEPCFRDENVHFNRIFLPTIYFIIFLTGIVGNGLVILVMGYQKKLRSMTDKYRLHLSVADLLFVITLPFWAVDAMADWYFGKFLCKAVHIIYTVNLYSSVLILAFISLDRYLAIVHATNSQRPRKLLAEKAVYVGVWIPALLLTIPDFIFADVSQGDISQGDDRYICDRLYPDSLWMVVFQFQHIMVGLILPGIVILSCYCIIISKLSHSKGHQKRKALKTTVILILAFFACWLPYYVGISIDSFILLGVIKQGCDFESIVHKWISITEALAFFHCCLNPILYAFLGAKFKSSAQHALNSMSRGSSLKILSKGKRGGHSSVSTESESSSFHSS
Method: Competition binding studies (IC50) were performed as described using either Jurkat cells and human CXCL12^AF647 (Almac, UK) as fluorescent ligand or U87.mCXCR4 cells and murine CXCL12^AF647 (Almac, UK) as fluorescent ligand. […] IC50-values were calculated using nonlinear regression (four parameters) in GraphPad Prism 9 (Graph Pad Software, San Diego, CA, USA) based on three biological replicates for each concentration tested.

[6] = Stability in human serum (radioHPLC); format: in vitro ADME; details: male, human serum (H4522 human male AB plasma), 5-fold dilution in human serum, 9 days at 37 °C, read-out: intact radioligand in human serum
Method: Formulated solutions of [^18F]AlF-NOTA-DV1-k-(DV3) and [^68Ga]Ga-DOTA-DV1-k-(DV3) were evaluated by radioHPLC 5 h and 2 h after radiosynthesis, respectively. In addition, 5-fold dilutions in human serum (H4522 human male AB plasma, USA origin, sterile-filtered, Sigma Aldrich, Saint Louis, MO, USA) were incubated at 37 °C for 2 h and analyzed using radioHPLC.
A formulated solution of [^177Lu]Lu-DOTA-DV1-k-(DV3) was evaluated by radioHPLC after 9 days of storage at 4 °C. A 5-fold dilution of [^177Lu]Lu-DOTA-DV1-k-(DV3) in human serum (H4522 human male AB plasma, USA origin, sterile-filtered, Sigma Aldrich, Saint Louis, MO, USA) was incubated at 37 °C for 9 days and analyzed by radioHPLC.

CN1C(=O)[C@@H](Cc2ccc(O)cc2)NC(=O)CNC(=O)[C@H](Cc2ccc3ccccc3c2)NC(=O)[C@H](CCCNC(=N)N)NC(=O)[C@H]1CCCNC(=O)c1ccc(CNC(=O)CN2CCN(CC(=O)O)CCN(CC(=O)O)CCN(CC(=O)O)CC2)cc1 [[^68Ga]PentixaFor, metal not drawn] (cyclo([dY][dNMeOrn]([4Amb-DOTA])R[2Nal]G))
SUV at 1.25 h ([1]; blood, + AMD3100 5 mg/kg, n: PentixaFor 1, 18F 2, 68Ga 4, 177Lu 3, read-out: blood uptake): 0.5 SUV
SUV at 1.25 h ([1]; blood, tracer alone, n: PentixaFor 3, 18F 5, 68Ga 4, 177Lu 3, read-out: blood uptake): 0.6 ± 0.1 SUV
SUV at 1.25 h ([1]; bone (femur harboring bone marrow), tracer alone, n: PentixaFor 3, 18F 5, 68Ga 4, 177Lu 3, read-out: bone uptake (femur harboring bone marrow)): 0.2 ± 0.01 SUV
SUV at 1.25 h ([1]; brain, + AMD3100 5 mg/kg, n: PentixaFor 1, 18F 2, 68Ga 4, 177Lu 3, read-out: brain uptake): 0.02 SUV
SUV at 1.25 h ([1]; brain, tracer alone, n: PentixaFor 3, 18F 5, 68Ga 4, 177Lu 3, read-out: brain uptake): 0.03 ± 0.01 SUV
SUV at 1.25 h ([1]; heart, + AMD3100 5 mg/kg, n: PentixaFor 1, 18F 2, 68Ga 4, 177Lu 3, read-out: heart uptake): 0.3 SUV
SUV at 1.25 h ([1]; heart, tracer alone, n: PentixaFor 3, 18F 5, 68Ga 4, 177Lu 3, read-out: heart uptake): 0.3 ± 0.02 SUV
SUV at 1.25 h ([1]; kidneys, tracer alone, n: PentixaFor 3, 18F 5, 68Ga 4, 177Lu 3, read-out: kidneys uptake): 1.9 ± 1.1 SUV
SUV at 1.25 h ([1]; liver, + AMD3100 5 mg/kg, n: PentixaFor 1, 18F 2, 68Ga 4, 177Lu 3, read-out: liver uptake): 0.5 SUV
SUV at 1.25 h ([1]; liver, tracer alone, n: PentixaFor 3, 18F 5, 68Ga 4, 177Lu 3, read-out: liver uptake): 0.6 ± 0.1 SUV
SUV at 1.25 h ([1]; lungs, + AMD3100 5 mg/kg, n: PentixaFor 1, 18F 2, 68Ga 4, 177Lu 3, read-out: lungs uptake): 0.7 SUV
SUV at 1.25 h ([1]; lungs, tracer alone, n: PentixaFor 3, 18F 5, 68Ga 4, 177Lu 3, read-out: lungs uptake): 0.7 ± 0.1 SUV
SUV at 1.25 h ([1]; muscle, + AMD3100 5 mg/kg, n: PentixaFor 1, 18F 2, 68Ga 4, 177Lu 3, read-out: muscle uptake): 0.2 SUV
SUV at 1.25 h ([1]; muscle, tracer alone, n: PentixaFor 3, 18F 5, 68Ga 4, 177Lu 3, read-out: muscle uptake): 0.2 ± 0.03 SUV
SUV at 1.25 h ([1]; pancreas, + AMD3100 5 mg/kg, n: PentixaFor 1, 18F 2, 68Ga 4, 177Lu 3, read-out: pancreas uptake): 0.3 SUV
SUV at 1.25 h ([1]; pancreas, tracer alone, n: PentixaFor 3, 18F 5, 68Ga 4, 177Lu 3, read-out: pancreas uptake): 0.3 ± 0.1 SUV
SUV at 1.25 h ([1]; spleen, + AMD3100 5 mg/kg, n: PentixaFor 1, 18F 2, 68Ga 4, 177Lu 3, read-out: spleen uptake): 0.3 SUV
SUV at 1.25 h ([1]; spleen, tracer alone, n: PentixaFor 3, 18F 5, 68Ga 4, 177Lu 3, read-out: spleen uptake): 0.3 ± 0.02 SUV
blocking of cellular uptake by excess AMD3100 [2]: completely blocked
SUV at 1 h [3]: 2.9 SUV

CC(C)C[C@@H](N)C(=O)NCC(=O)N[C@H](C)C(=O)N[C@H](CO)C(=O)N[C@H](Cc1c[nH]c2ccccc12)C(=O)N[C@H](Cc1c[nH]cn1)C(=O)N[C@H](CCCNC(=N)N)C(=O)N1CCC[C@@H]1C(=O)N[C@H](CC(=O)O)C(=O)N[C@H](CCCCN)C(=O)NCCCC[C@@H](NC(=O)[C@H]1CCCN1C(=O)[C@@H](CC(C)C)NC(=O)[C@H]1CCCN1C(=O)[C@@H](CCCNC(=N)N)NC(=O)[C@@H](CCCCN)NC(=O)[C@@H](CCC(N)=O)NC(=O)[C@@H](Cc1ccc(O)cc1)NC(=O)CNC(=O)[C@@H](CC(C)C)NC(=O)[C@@H](CS)NC(=O)[C@@H](CS)NC(=O)[C@@H](CCCCN)NC(=O)[C@@H](CC(=O)O)NC(=O)[C@H]1CCCN1C(=O)[C@@H](CCCNC(=N)N)NC(=O)[C@@H](Cc1c[nH]cn1)NC(=O)[C@@H](Cc1c[nH]c2ccccc12)NC(=O)[C@@H](CO)NC(=O)[C@@H](C)NC(=O)CNC(=O)[C@H](N)CC(C)C)C(=O)O [DV1-k-(DV3)] (I: H-[dL]G[dA][dS][dW][dH][dR][dP][dD][dK][dC][dC][dL]G[dY][dQ][dK][dR][dP][dL][dP][dK]-OH / II: H-[dL]G[dA][dS][dW][dH][dR][dP][dD][dK]; amide I:22-II:C)
stability in standard labeling conditions [4]: No degradation products were detected

CN1C(=O)[C@@H](Cc2ccc(O)cc2)NC(=O)CNC(=O)[C@H](Cc2ccc3ccccc3c2)NC(=O)[C@H](CCCNC(=N)N)NC(=O)[C@H]1CCCNC(=O)c1ccc(CNC(=O)CN2CCN(CC(=O)O)CCN(CC(=O)O)CCN(CC(=O)O)CC2)cc1 [[^natGa]PentixaFor, metal not drawn] (cyclo([dY][dNMeOrn]([4Amb-DOTA])R[2Nal]G))
IC50 ([5]; read-out: IC50 [nM] to mCXCR4, murine CXCL12^AF647 as fluorescent ligand, mean ± SD, n = 3): > 1000 nM

CC(C)C[C@@H](N)C(=O)NCC(=O)N[C@H](C)C(=O)N[C@H](CO)C(=O)N[C@H](Cc1c[nH]c2ccccc12)C(=O)N[C@H](Cc1c[nH]cn1)C(=O)N[C@H](CCCNC(=N)N)C(=O)N1CCC[C@@H]1C(=O)N[C@H](CC(=O)O)C(=O)N[C@H](CCCCNC(=O)CN1CCN(CC(=O)O)CCN(CC(=O)O)CCN(CC(=O)O)CC1)C(=O)NCCCC[C@@H](NC(=O)[C@H]1CCCN1C(=O)[C@@H](CC(C)C)NC(=O)[C@H]1CCCN1C(=O)[C@@H](CCCNC(=N)N)NC(=O)[C@@H](CCCCN)NC(=O)[C@@H](CCC(N)=O)NC(=O)[C@@H](Cc1ccc(O)cc1)NC(=O)CNC(=O)[C@@H](CC(C)C)NC(=O)[C@@H](CS)NC(=O)[C@@H](CS)NC(=O)[C@@H](CCCCN)NC(=O)[C@@H](CC(=O)O)NC(=O)[C@H]1CCCN1C(=O)[C@@H](CCCNC(=N)N)NC(=O)[C@@H](Cc1c[nH]cn1)NC(=O)[C@@H](Cc1c[nH]c2ccccc12)NC(=O)[C@@H](CO)NC(=O)[C@@H](C)NC(=O)CNC(=O)[C@H](N)CC(C)C)C(=O)O [[^177Lu]Lu-DOTA-DV1-k-(DV3), metal not drawn] (I: H-[dL]G[dA][dS][dW][dH][dR][dP][dD][dK][dC][dC][dL]G[dY][dQ][dK][dR][dP][dL][dP][dK]-OH / II: H-[dL]G[dA][dS][dW][dH][dR][dP][dD][dK](DOTA); amide I:22-II:C)
remaining at 216 h [6]: > 98%

c1cc(CN2CCCNCCNCCCNCC2)ccc1CN1CCCNCCNCCCNCC1 [AMD3100]
IC50 ([5]; murine CXCL12^AF647 as fluorescent ligand, mean ± SD, n = 3, read-out: IC50 [nM] to mCXCR4): 123 ± 17 nM
